Measurements: PMC9329436, “Optimization of the 4-anilinoquin(az)oline scaffold as epidermal growth factor receptor (EGFR) inhibitors for chordoma utilizing a toxicology profiling assay platform” (Scientific Reports, 2022)
Where two headings read alike, the source gives them in different places.

Experiments:
Format in all cases: biochemical
[1] = molecular target: 320 wild-type protein kinases (Homo sapiens, UniProt O75676); conditions: kinase RPS6KA4, singlicate
From the text: (§1) Table S4. Profiling of two compounds at two concentrations against 320 wild-type protein kinases; singlicate measurement; Residual activities (% of control).

[2] = molecular target: 320 wild-type protein kinases (Homo sapiens, UniProt P09769); conditions: FGR, singlicate
From the text: as §1

[3] = molecular target: 320 wild-type protein kinases (Homo sapiens, UniProt P49759); conditions: singlicate
From the text: as §1

[4] = molecular target: 320 wild-type protein kinases (Homo sapiens, UniProt Q02763); conditions: kinase TIE2, singlicate
From the text: as §1

[5] = molecular target: 320 wild-type protein kinases (Homo sapiens, UniProt Q07912); conditions: singlicate
From the text: as §1

[6] = molecular target: 320 wild-type protein kinases (Homo sapiens, UniProt Q15746); conditions: MYLK, singlicate
From the text: as §1

[7] = molecular target: T1, 320 wild-type protein kinases (Homo sapiens, UniProt Q8IWQ3); conditions: singlicate
T1 sequence (Q8IWQ3 1-736): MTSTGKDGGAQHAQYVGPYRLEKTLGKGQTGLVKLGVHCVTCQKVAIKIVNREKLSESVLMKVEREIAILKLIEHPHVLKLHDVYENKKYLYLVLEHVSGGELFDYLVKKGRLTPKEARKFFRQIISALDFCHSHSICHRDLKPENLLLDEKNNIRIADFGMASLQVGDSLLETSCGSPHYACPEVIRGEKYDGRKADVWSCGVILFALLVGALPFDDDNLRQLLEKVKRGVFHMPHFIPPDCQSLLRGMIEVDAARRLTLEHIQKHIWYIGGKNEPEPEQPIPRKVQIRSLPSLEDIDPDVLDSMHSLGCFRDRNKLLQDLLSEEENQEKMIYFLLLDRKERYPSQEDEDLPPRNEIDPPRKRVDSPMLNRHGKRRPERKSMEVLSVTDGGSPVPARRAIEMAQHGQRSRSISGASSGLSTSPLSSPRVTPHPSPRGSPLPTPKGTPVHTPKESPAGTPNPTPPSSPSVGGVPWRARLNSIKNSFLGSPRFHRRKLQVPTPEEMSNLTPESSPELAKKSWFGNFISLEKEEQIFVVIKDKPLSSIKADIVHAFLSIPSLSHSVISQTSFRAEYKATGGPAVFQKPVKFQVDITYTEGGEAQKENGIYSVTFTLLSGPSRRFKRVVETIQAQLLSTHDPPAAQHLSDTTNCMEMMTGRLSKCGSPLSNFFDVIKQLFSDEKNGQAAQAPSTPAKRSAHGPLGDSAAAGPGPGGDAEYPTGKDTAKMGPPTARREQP
From the text: as §1

[8] = molecular target: T2, 320 wild-type protein kinases (Homo sapiens, UniProt Q8NE63); conditions: singlicate
T2 sequence (Q8NE63 1-616): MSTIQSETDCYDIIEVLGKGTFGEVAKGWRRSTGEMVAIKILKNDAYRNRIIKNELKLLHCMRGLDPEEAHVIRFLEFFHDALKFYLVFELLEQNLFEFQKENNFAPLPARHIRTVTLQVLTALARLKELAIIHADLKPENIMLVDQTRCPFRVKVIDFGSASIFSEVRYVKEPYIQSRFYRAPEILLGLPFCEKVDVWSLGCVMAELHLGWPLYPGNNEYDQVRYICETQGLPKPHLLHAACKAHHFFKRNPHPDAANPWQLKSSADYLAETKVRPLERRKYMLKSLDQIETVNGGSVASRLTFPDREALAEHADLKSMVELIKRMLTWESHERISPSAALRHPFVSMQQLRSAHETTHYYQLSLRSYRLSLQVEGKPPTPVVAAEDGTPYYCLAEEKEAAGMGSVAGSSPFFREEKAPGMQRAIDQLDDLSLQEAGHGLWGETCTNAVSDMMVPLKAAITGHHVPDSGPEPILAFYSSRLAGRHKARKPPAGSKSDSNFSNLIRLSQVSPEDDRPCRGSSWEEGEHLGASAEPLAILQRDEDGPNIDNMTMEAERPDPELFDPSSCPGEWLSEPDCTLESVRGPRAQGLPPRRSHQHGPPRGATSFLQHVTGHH
From the text: as §1

[9] = molecular target: 320 wild-type protein kinases (Homo sapiens, UniProt Q9BYT3); conditions: kinase STK33, singlicate
From the text: as §1

[10] = molecular target: 320 wild-type protein kinases (Homo sapiens, UniProt Q9H1R3); conditions: singlicate
From the text: as §1

[11] = molecular target: 320 wild-type protein kinases (Homo sapiens, UniProt Q9NYY3); conditions: kinase SNK, singlicate
From the text: as §1

[12] = molecular target: 320 wild-type protein kinases (Homo sapiens, UniProt Q9Y6M4); conditions: singlicate
From the text: as §1

320 wild-type protein kinases (Homo sapiens, UniProt Q9NYY3), sequence (Q9NYY3 whole entry): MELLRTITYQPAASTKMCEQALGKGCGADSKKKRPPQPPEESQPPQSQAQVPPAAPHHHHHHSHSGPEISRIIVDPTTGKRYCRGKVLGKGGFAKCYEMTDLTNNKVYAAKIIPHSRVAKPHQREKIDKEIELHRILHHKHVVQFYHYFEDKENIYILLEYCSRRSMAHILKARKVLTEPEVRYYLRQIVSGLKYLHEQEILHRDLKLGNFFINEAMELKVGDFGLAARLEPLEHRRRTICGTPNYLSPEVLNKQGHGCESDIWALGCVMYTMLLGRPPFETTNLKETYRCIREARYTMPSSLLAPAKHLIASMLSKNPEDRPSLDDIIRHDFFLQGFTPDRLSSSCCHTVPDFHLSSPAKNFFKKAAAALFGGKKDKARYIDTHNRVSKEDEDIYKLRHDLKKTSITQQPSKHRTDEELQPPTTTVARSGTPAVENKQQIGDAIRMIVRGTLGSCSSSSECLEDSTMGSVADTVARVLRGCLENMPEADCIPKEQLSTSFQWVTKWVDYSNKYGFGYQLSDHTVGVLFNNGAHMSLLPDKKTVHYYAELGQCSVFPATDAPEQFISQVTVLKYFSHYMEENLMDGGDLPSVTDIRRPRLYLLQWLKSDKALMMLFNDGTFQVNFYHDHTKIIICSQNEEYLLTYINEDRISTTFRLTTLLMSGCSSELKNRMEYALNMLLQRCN
320 wild-type protein kinases (Homo sapiens, UniProt Q15746), sequence (Q15746 whole entry): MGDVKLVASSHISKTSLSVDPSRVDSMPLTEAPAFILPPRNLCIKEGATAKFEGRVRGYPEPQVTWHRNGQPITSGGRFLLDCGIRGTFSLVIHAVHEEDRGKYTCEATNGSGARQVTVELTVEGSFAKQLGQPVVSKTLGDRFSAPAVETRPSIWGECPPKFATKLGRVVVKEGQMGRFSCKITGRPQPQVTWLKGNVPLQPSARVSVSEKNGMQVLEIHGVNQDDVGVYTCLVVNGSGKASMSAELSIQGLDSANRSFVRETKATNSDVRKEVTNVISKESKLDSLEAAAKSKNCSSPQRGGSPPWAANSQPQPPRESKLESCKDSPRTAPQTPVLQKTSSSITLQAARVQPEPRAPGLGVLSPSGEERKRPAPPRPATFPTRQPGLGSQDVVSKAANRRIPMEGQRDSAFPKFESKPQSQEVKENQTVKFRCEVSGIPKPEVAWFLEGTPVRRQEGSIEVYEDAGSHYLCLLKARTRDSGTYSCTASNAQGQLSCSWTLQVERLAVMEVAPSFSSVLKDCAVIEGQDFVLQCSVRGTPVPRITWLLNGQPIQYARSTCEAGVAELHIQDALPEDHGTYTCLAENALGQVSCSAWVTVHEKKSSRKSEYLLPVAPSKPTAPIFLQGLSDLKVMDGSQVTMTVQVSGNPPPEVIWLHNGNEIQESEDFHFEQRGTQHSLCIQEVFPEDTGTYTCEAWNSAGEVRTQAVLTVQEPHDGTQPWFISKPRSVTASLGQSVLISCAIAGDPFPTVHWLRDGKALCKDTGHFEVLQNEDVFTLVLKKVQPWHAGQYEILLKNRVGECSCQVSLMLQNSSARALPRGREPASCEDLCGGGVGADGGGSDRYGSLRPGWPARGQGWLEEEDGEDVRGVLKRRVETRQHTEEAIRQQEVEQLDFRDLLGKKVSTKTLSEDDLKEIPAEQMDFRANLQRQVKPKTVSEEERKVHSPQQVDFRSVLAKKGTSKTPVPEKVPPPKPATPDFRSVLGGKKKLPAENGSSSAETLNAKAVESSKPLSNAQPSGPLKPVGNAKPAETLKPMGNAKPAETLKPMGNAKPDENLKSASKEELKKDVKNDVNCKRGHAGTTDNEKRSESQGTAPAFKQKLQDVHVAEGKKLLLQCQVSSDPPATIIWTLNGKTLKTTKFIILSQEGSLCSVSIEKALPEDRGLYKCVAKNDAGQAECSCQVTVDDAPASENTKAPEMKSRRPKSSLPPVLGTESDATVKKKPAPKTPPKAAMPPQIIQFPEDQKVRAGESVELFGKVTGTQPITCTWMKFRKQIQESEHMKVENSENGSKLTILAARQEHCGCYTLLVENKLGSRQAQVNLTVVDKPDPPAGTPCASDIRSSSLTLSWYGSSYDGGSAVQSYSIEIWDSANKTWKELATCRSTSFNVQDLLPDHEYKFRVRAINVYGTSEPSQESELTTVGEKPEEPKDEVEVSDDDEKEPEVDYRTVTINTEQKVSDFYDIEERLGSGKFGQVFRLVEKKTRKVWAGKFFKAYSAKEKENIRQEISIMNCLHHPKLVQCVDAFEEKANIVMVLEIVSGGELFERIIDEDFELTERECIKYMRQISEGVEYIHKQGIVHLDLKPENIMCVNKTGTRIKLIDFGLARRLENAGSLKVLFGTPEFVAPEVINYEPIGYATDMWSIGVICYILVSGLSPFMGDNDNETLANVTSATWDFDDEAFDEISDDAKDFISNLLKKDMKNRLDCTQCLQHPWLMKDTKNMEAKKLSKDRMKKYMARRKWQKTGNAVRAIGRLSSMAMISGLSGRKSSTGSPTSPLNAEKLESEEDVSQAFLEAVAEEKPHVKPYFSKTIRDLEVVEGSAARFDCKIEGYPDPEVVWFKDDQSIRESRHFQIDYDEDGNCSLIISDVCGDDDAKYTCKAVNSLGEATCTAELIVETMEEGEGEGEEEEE
320 wild-type protein kinases (Homo sapiens, UniProt P09769), sequence (P09769 whole entry): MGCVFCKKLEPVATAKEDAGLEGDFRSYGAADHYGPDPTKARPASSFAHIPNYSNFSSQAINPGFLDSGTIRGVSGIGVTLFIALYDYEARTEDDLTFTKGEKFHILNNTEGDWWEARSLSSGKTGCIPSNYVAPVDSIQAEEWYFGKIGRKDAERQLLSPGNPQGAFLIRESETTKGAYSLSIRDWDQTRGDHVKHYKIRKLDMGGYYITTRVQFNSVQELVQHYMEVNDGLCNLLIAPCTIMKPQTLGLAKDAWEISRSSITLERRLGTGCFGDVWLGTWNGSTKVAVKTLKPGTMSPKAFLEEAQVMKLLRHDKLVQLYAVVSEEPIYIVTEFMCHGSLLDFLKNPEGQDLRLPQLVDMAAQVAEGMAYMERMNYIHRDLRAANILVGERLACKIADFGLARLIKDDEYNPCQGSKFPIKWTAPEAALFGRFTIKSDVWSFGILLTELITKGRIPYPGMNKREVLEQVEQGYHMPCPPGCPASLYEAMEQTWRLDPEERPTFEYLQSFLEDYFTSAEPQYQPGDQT
320 wild-type protein kinases (Homo sapiens, UniProt Q07912), sequence (Q07912 whole entry): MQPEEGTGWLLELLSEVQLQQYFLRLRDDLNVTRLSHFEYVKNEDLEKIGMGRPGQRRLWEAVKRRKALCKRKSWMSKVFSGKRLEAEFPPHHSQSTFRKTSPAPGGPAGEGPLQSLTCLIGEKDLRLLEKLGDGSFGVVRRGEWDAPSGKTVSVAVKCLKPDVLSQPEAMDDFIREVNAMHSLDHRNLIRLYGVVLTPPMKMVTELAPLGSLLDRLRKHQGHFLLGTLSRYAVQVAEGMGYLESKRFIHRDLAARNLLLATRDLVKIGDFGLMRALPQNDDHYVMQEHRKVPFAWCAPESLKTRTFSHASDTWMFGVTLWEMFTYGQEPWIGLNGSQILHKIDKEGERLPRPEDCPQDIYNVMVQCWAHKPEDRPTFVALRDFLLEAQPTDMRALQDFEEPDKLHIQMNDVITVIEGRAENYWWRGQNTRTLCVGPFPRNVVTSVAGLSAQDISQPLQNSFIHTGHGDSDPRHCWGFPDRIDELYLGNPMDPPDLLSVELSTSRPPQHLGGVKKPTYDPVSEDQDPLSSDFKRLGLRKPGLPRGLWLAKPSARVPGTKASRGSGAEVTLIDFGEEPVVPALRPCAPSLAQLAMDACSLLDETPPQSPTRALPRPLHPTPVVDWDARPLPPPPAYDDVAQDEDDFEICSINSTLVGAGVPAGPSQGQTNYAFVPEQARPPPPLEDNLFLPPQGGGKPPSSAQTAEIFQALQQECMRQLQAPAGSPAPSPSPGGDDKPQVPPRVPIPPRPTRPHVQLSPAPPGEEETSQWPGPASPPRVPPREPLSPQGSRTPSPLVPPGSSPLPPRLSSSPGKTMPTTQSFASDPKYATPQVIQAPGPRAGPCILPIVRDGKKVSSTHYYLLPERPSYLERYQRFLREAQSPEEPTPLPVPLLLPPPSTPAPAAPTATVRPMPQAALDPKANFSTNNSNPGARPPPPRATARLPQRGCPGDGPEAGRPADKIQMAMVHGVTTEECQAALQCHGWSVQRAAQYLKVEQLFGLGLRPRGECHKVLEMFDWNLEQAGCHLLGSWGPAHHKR
320 wild-type protein kinases (Homo sapiens, UniProt Q9H1R3), sequence (Q9H1R3 whole entry): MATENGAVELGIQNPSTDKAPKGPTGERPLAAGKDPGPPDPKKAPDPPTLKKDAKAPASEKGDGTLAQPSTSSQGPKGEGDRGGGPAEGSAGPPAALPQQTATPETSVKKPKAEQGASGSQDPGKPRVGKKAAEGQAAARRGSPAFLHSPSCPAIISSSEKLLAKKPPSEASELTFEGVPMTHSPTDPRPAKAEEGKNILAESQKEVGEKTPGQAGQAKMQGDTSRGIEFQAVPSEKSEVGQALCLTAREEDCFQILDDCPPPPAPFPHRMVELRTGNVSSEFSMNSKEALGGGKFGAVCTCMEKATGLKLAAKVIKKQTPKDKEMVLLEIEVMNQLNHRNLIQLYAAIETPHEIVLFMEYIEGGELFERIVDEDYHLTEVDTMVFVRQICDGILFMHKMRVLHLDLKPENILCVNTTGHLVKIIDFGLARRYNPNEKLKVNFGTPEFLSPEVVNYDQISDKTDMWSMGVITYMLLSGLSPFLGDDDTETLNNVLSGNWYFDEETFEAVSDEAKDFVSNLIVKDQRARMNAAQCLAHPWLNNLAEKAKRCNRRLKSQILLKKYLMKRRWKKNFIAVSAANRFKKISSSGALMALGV

Row | SMILES | Residual activity, RPS6KA4 ([1]; assay conc. 1.0E-06 M) | Residual activity, RPS6KA4 ([1]; assay conc. 1.0E-07 M) | Residual activity ([2]; 1.0E-06 M) | Residual activity ([2]; 1.0E-07 M) | Residual activity ([3]; CLK1, 1.0E-06 M) | Residual activity ([3]; CLK1, 1.0E-07 M) | Residual activity, TIE2 ([4]; assay conc. 1.0E-06 M) | Residual activity, TIE2 ([4]; assay conc. 1.0E-07 M) | Residual activity ([5]; ACK1, 1.0E-06 M) | Residual activity ([5]; ACK1, 1.0E-07 M) | Residual activity ([6]; 1.0E-06 M) | Residual activity ([6]; 1.0E-07 M) | Residual activity ([7]; BRSK2, 1.0E-06 M) | Residual activity ([7]; BRSK2, 1.0E-07 M) | Residual activity ([8]; HIPK4, 1.0E-06 M) | Residual activity ([8]; HIPK4, 1.0E-07 M) | Residual activity, STK33 ([9]; assay conc. 1.0E-06 M) | Residual activity, STK33 ([9]; assay conc. 1.0E-07 M) | Residual activity ([10]; MYLK2, 1.0E-06 M) | Residual activity ([10]; MYLK2, 1.0E-07 M) | other results
1 | C#Cc1cc(Nc2ncnc3cc(I)ccc23)ccc1Cl [Compound 41] | 93 % of control | 95 % of control | 114 % of control | 129 % of control | 89 % of control | 89 % of control | 87 % of control | 84 % of control | 98 % of control | 134 % of control | 58 % of control | 98 % of control | 100 % of control | 98 % of control | 97 % of control | 104 % of control | 89 % of control | 98 % of control | 75 % of control | 90 % of control | Residual activity, SNK ([11]; assay conc. 1.0E-06 M): 89 % of control; Residual activity, SNK ([11]; assay conc. 1.0E-07 M): 97 % of control; Residual activity ([12]; CK1-gamma3, 1.0E-06 M): 118 % of control; Residual activity ([12]; CK1-gamma3, 1.0E-07 M): 121 % of control
2 | C#Cc1cc(Nc2ncnc3cc(OC)c(OC)cc23)ccc1Cl [Compound 45] | 83 % of control | 95 % of control | 94 % of control | 125 % of control | 79 % of control | 102 % of control | 82 % of control | 111 % of control | 63 % of control | 100 % of control | 71 % of control | 92 % of control | 101 % of control | 106 % of control | 57 % of control | 98 % of control | 76 % of control | 100 % of control | 70 % of control | 89 % of control | Residual activity, SNK ([11]; assay conc. 1.0E-06 M): 87 % of control; Residual activity, SNK ([11]; assay conc. 1.0E-07 M): 99 % of control; Residual activity ([12]; CK1-gamma3, 1.0E-06 M): 123 % of control; Residual activity ([12]; CK1-gamma3, 1.0E-07 M): 116 % of control
